Values after ≈ are worked out from the molar mass of the structure shown.
Legend:
Assay type in all cases: cell-based
[1] = tested on: Staphylococcus aureus; assay: General antimicrobial activity, 5-fold serial dilution test in agar (MIC); conditions: 37° C., 48 hours, growth only at lower concentration of range, read-out: minimum inhibitory concentration (MIC), B1
Experimental: (§1) General antibacterial and antifungal activity was evaluated by a 5-fold serial dilution test in agar. In this test, compounds were prepared as 6% solutions in dimethylformamide or ethanol. The 6% solution was then 5-fold serially diluted in test tubes to give the desired concentrations when mixed with agar and poured into sterile Petri dishes. Tryptone glucose extract agar was used for the bacterial testing; mildew glucose agar for the fungal testing. The bacterial plates were spot inoculated with 24-hour nutrient broth cultures and incubated at 37° C. for 48 hours. The fungal plates were spot inoculated with spore suspensions and incubated at 28° C. for seven days. At the end of the incubation periods, all plates were examined for growth. The minimum inhibitory concentration (MIC) for each organism is expressed in Table I. In the ranges presented, growth is observed only at the lower concentration.
(§2) The activity is presented in Tabular Form (Table I) using the following key.

[2] = tested on: Penicillium piscarium; assay: as above; conditions: 168 h, 28° C., seven days, growth only at lower concentration of range, read-out: minimum inhibitory concentration (MIC), F3
Experimental: as §1, §2

[3] = tested on: Pseudomonas aeruginosa; assay: as above; conditions: 37° C., 48 hours, growth only at lower concentration of range, read-out: minimum inhibitory concentration (MIC), B3
Experimental: as §1, §2

[4] = tested on: Escherichia coli; assay: as above; conditions: 37° C., 48 hours, growth only at lower concentration of range, read-out: minimum inhibitory concentration (MIC), B2
Experimental: as §1, §2

[5] = tested on: Aspergillus oryzae; assay: as above; conditions: 168 h, 28° C., seven days, growth only at lower concentration of range, read-out: minimum inhibitory concentration (MIC), F2
Experimental: as §1, §2

[6] = tested on: Aspergillus niger; assay: as above; conditions: 168 h, 28° C., seven days, growth only at lower concentration of range, read-out: minimum inhibitory concentration (MIC), F1
Experimental: as §1, §2

[7] = tested on: Aureobasidium pullulans; assay: as above; conditions: 168 h, 28° C., seven days, growth only at lower concentration of range, read-out: minimum inhibitory concentration (MIC), F4
Experimental: as §1, §2

[8] = tested on: Proteus vulgaris; assay: as above; conditions: 37° C., 48 hours, growth only at lower concentration of range, read-out: minimum inhibitory concentration (MIC), B4
Experimental: as §1, §2

[9] = tested on: Bacillus subtilis; assay: as above; conditions: 37° C., 48 hours, growth only at lower concentration of range, read-out: minimum inhibitory concentration (MIC), B5
Experimental: as §1, §2

[10] = tested on: broad spectrum of microorganisms including gram positive bacteria, gram negative bacteria and molds; assay: Antimicrobial activity, general statement in the text
[11] = tested on: Pseudomonas aeruginosa; assay: Utility in water and oil emulsions (3.3% cutting oil emulsions); conditions: 28° C., weekly reinoculation, read-out: Minimum Inhibitory Concentration Range
Experimental: The utility of the 2-chloro-3-oxobutyramide derivatives in water and oil emulsions is illustrated below using a commercially available cutting oil. In running these tests, two-fold serial dilutions of 6% solutions of the compound in dimethylformamide was added to 3.3% cutting oil emulsions. The emulsions were prepared by diluting with water a commercially available cutting oil concentrate. The emulsions were inoculated with a culture of Pseudomonas aeruginosa and incubated at 28° C. on a rotary shaker. At weekly intervals, the emulsions were examined for bacteria by conventional streak-plate methods. The emulsions were then reinoculated with Pseudomonas aeruginosa and reincubated. […] indicate the activity range for that compound.

[12] = tested on: Pseudomonas aeruginosa; assay: Utility as a cosmetic preservative (cosmetic lotion); conditions: weekly reinoculation
Experimental: (§3) The 2-Chloro-3-oxobutyramide derivatives are effective cosmetic preservatives. Two-fold serial dilutions of 6% solutions of the 2-haloacetoacetic acid derivatives in dimethylformamide were added to a cosmetic lotion of the following formulation: |Stearic acid 1.4 g |Arlacel 60 (sorbitan |monostearate) 0.7 g |Tween 20 Polyoxethylene |(20) sorbitan |monostearate 1.6 g |Distilled water 94.0 g The lotions were inoculated with both Pseudomonas aeruginosa and Aspergillus niger and incubated at 28° C. At weekly intervals, the lotions were examined for microorganisms by conventional streak-plate methods or by macroscopic observation. The lotions were then reinoculated with the test organisms and reincubated.

[13] = tested on: Aspergillus niger; assay: as above; conditions: weekly reinoculation
Experimental: as §3

MIC [1]: 384 to 1920 µg/mL (≈ 2350 to 11700 µM) | MIC [2]: 384 to 1920 µg/mL (≈ 2350 to 11700 µM) | MIC [3]: 384 to 1920 µg/mL (≈ 2350 to 11700 µM) | MIC [4]: 76.8 to 384 µg/mL (≈ 469 to 2350 µM) | MIC [5]: 384 to 1920 µg/mL (≈ 2350 to 11700 µM) | MIC [6]: 384 to 1920 µg/mL (≈ 2350 to 11700 µM) | MIC [7]: 76.8 to 384 µg/mL (≈ 469 to 2350 µM) | MIC [8]: 76.8 to 384 µg/mL (≈ 469 to 2350 µM) | MIC [9]: 384 to 1920 µg/mL (≈ 2350 to 11700 µM) | MIC ([11]; Week 1, 3.3% cutting oil emulsion): 125 to 500 µg/mL (≈ 764 to 3060 µM) | MIC ([11]; Week 2, 3.3% cutting oil emulsion): 250 to 500 µg/mL (≈ 1530 to 3060 µM) | MIC ([11]; Week 3, 3.3% cutting oil emulsion): 250 to 500 µg/mL (≈ 1530 to 3060 µM) | MIC ([11]; Week 4, 3.3% cutting oil emulsion): 250 to 500 µg/mL (≈ 1530 to 3060 µM)
Compound: CC(=O)C(Cl)C(=O)N(C)C (stereo not shown) [R1=CH3, R2=CH3, 2-chloro-N,N-dimethyl-3-oxobutyramide]
antimicrobial activity (in words) [10]: high level of activity | minimum inhibitory concentration effective in preventing microbial growth ([12]; Week 1, 28° C.): 2 (500-1000 mcg/gm) | minimum inhibitory concentration effective in preventing microbial growth ([12]; Week 2, 28° C.): 2 (500-1000 mcg/gm) | minimum inhibitory concentration effective in preventing microbial growth ([12]; Week 3, 28° C.): 2 (500-1000 mcg/gm) | minimum inhibitory concentration effective in preventing microbial growth ([12]; Week 4, 28° C.): 2 (500-1000 mcg/gm) | minimum inhibitory concentration effective in preventing microbial growth ([13]; Week 1, 28° C.): 1 (1000-2000 mcg/gm) | minimum inhibitory concentration effective in preventing microbial growth ([13]; Week 2, 28° C.): 1 (1000-2000 mcg/gm) | minimum inhibitory concentration effective in preventing microbial growth ([13]; Week 3, 28° C.): 1 (1000-2000 mcg/gm) | minimum inhibitory concentration effective in preventing microbial growth ([13]; Week 4, 28° C.): 1 (1000-2000 mcg/gm)

Source: patent publication US4247712A, “Preservation of aqueous systems with 2-chloro-3-oxobutyramide derivatives” (Givaudan Corporation, priority 1979, dated 1981)
